Series [1] concerns the target Tat-TAR interaction. The series is described as follows: Gel-shift inhibition of Tat R52 peptide binding to TAR RNA. As to conditions: TAR RNA 6 nM; 60 nM Tat R52; read-out: CI50 (the source's name). On the set-up: species or system HIV-1. Here is the method: The model Tat peptide (R52: […]) was prepared by the Weizmann Institute Chemical Services and was purified by reverse phase HPLC (C-18) (Lapidot et al., 1995). A 31-nt TAR RNA fragment (5′-GGCCAGAUCUGAGCCUGGGAGCUCUCUGGCC-3′) containing the sequence 18-44 of the HIV LTR (Aboul-Ela et al., 1995) was transcribed in vitro by T7 RNA polymerase (Promega) from a synthetic single strand DNA template containing the 17 base double-stranded T7 promoter (both DNA oligonucleotides were prepared by the Weizmann Institute Chemical Services). The RNA was transcriptionally labeled with α-^32P UTP, purified on a 12% polyacrylamide/7M urea gel (19:1 acrylamide:bis-acrylamide) and was eluted from the gel by 0.5M ammonium acetate, 10 mM magnesium acetate, 1 mM EDTA and 0.1% SDS. The sample was subjected to phenol extraction and the RNA was precipitated from 70% ethanol. Purified RNA was dissolved in diethyl pyrocarbonate-treated water (DEPC water), its concentration was determined by UV absorption at 260 nm and the specific radioactivity was determined by scintillation counting on a LS 1701 “Bruker” counter.
To study the affinity of the test compounds to TAR, gel-shift and gel-shift inhibition experiments were performed. The binding reaction mixtures (20 μl) contained ^32P-labeled TAR (18-44) RNA oligonucleotide (3-6 nM) and Tat R52 peptide (35-75 nM) in a binding buffer (10 mM Tris-HCl pH 7.5, 70 mM NaCl, 0.2 mM EDTA and 5% glycerol). The reaction mixtures were incubated for 10 minutes on ice and resolved by electrophoresis on a 10% non-denaturing polyacrylamide gel (40:1 acrylamide:bis-acrylamide) at 200V, for 3 h at 4° C. Gels were dried and visualized by autoradiography. Quantitations were obtained by optical densitometry of films. Alternatively, results were visualized by exposing the wet gels to Fuji phosphoimager plates, which were read on a “Storm 820” (Molecular Dynamics) phosphoimager. Different concentrations of TAR RNA (6,12 and 20 nM) were titrated with various concentrations of Tat R52 in the binding reactions.
Binding inhibition by the monosaccharide derivatives was measured by adding several concentrations of each compound to reaction mixtures containing 60 nM Tat 52 and 6 nM ^32P TAR, attaining 100% binding of Tat TAR in the absence of inhibitors (Lapidot et al., 1995).

A further series deals with TAR RNA. Description: L-arginine-Amberlite affinity column elution of TAR RNA. In kind it is binding, HIV-1. As to conditions: concentration that elutes 50% of TAR RNA from L-arginine-Amberlite affinity column. The method, then: The model Tat peptide (R52: […]) was prepared by the Weizmann Institute Chemical Services and was purified by reverse phase HPLC (C-18) (Lapidot et al., 1995). […] The RNA was transcriptionally labeled with α-^32P UTP, purified on a 12% polyacrylamide/7M urea gel (19:1 acrylamide:bis-acrylamide) and was eluted from the gel by 0.5M ammonium acetate, 10 mM magnesium acetate, 1 mM EDTA and 0.1% SDS. The sample was subjected to phenol extraction and the RNA was precipitated from 70% ethanol. Purified RNA was dissolved in diethyl pyrocarbonate-treated water (DEPC water), its concentration was determined by UV absorption at 260 nm and the specific radioactivity was determined by scintillation counting on a LS 1701 “Bruker” counter.
The L-arginine-Amberlite resin was prepared as follows: Carboxyl groups of Amberlite IRC-50 resin were covalently modified with ethanolamine using 1-(3-dimethylaminopropyl) 3-ethylcarbodiimide, a water-soluble coupler. The hydroxy ethyleneamide resin obtained was washed and dried, and L-arginine (12-16 μmols per ml of resin) was coupled to the hydroxy groups of the resin via an isourea moiety using a standard cyanogen bromide protocol. The final concentration of arginine residues was 12-16 μmol per ml of resin. The swollen L-arginino-Amberlite resin (200 μl) was packed into a plastic mini-column and equilibrated with buffer containing 40 mM Tris HCl, pH 7.5, 250 mM NaCl, 0.5 mM EDTA and 5 mM MgCl2 (buffer A). Approximately 1 ng of ^32P-UTP labeled TAR RNA in buffer A was loaded on the column. The column was eluted 3 to 5 times with 400 μl portions of buffer A, until no radioactivity was detected in the eluent. […] Each of the test compounds was dissolved in buffer A and passed through the column in 300 μl portions. Radioactivity of the eluates was determined by scintillation counting on a LS 1701 “Bruker” counter. CE50 values, the concentrations of inhibitors eluting 50% of the radioactive material from the column, were determined.

Series [2] has as its target Tat-TAR interaction. Description: Gel-shift inhibition of Tat R52 peptide binding to TAR RNA. Set-up: species or system HIV-1. As to conditions: TAR RNA 2 nM; read-out: CI50 (the source's name).
For a further series, the system named is Tat-TAR complex. The note with it: cited from earlier work.
The test system of series [3] is HIV-1 NL4-3. The series is described as follows: Virus-binding assay, p24 antigen bound to MT-4 cells. The format is cell-based. The method, then:
MT4 cells (5×10^5) were incubated with supernatant containing 1×10^5 pg of p24 antigen of wild type HIV-1 in the presence of different concentrations of the test compound. One hour after infection, cells were washed 3 times with PBS and p24 antigen bound to the cells was determined by a commercial ELISA test (Coulter, Spain).

A further series deals with HIV-1 2D. In kind it is cell-based. Here is the method: (§1) T-tropic HIV-1 laboratory strains IIIb, 2D as well as AZT-resistant and UC781-resistant strains were utilized in this study, along with clinical isolate (clade C). HIV-1 clinical isolate, resistant to AZT is a generous gift from Dr. Mark A. Wainberg, McGill AIDS Center, McGill University, Montreal, Canada.
(§2) MT-2 or MT-4 cells were cultured in RPMI 1640 supplemented with 10% fetal calf serum (FCS), 0.2 mM glutamine and penicilline/streptomycin/nistatin mixture. The cells were propagated in 96-well tissue culture plates at the density of 5×10^4 cells per well. Peripheral mononuclear blood cells (PMBC) were separated from whole blood samples by centrifugation in Ficoll gradient for 10 min at 400 g. PMBC were cultured in the same medium in 24-well tissue culture plates at the density of about 10^6 cells per well.

The test system of series [4] is MT-2 cells as well as PMBC lines ETH and IS. As to conditions: ratio CC50/EC50. Here is the method: (§3) The cells were infected by incubation with different titers of the HIV-1 strains for 2 hrs at 37° C. in the presence or absence of the AAC of the invention. Then the cells were washed from the virus by centrifugation at 400 g and the supernatants were discarded. The cells were resuspended in culture medium, supplemented with different concentrations of the test compounds. The cells were allowed to proliferate for 5 days, the number of viable cells was quantified by a tetrazolium-based colorimetric method (CellTiter 96® AQueous One solution Cell Proliferation Assay, Promega). Anti-HIV activity in P4-CCR5 MAGI cells was done as follows: cells (1×10^5/ml) were infected with 10 ng/ml of p24 antigen of HIV-1 Ba-L in the presence of varying concentrations of the test compound. 24 hours post infection, cells were washed twice with PBS and resuspended in the medium containing the appropriate drug concentration. Five days after infection the cells were washed with PBS and evaluated for β-galactosidase activity.

Series [5] has as its target T1, CXCR4 (Homo sapiens, UniProt P61073). The series is described as follows: Inhibition of anti-CXCR4 mAb (12G5) binding, flow cytometry, PHA-activated PBMC. Set-up: endogenous in cells. The method, then:
(§4) Measurement of chemokine receptors CXCR4, CCR5 and the CD4 receptor on phytohemagglutinin (PHA)-activated PBMC was performed by flow cytometry analysis. Briefly, 0.5×10^6 cells were washed in ice-cold phosphate-buffered saline (PBS) and incubated for 30 minutes at 4÷C. with fluorescent labelled mAb 12G5 and 2D7 and Leu3a (Becton Dickinson, San Jose, Calif.) or with isotype control mAbs in the presence or absence of the test compound. Then, the cells were washed with ice-cold PBS and were fixed in PBS containing 1% formaldehyde. For each sample, 10,000 events were analysed in a FACScalibur™ system (Becton Dickinson). Data were acquired and analysed with CellQuest™ software (Becton Dickinson).
Background: A flow cytometer gives signals particle by particle.

Series [6] deals with HIV-1 clinical isolate (clade C). The series is described as follows: Anti-HIV assay, syncytium formation and tetrazolium colorimetric assay. The format is cell-based. The method, then: as §1, §2
The subject of the next series is HIV-1 IIIB. The description is as above. In kind it is cell-based. The note with it: range over IIIb, 2D, AZT resistant, UC781 resistant and clade C HIV-1. The method, then:
as §1, §2

Series [7] addresses T1, CXCR4. The series is described as follows: Inhibition of anti-CXCR4 mAb (12G5) binding, flow cytometry, SUP-T1 cells. Set-up: endogenous in cells. The method, then:
as §4

Series [8] relates to HIV-1 NL4-3 AMD3100-resistant. The format is cell-based.
Series [9] has as its system HIV-1 NL4-3. Description: Anti-HIV assay, MTT, MT-4 cells. In kind it is cell-based. The method, then: The HIV-1 strains NL4-3 and Ba-L and the CD4^+lymphocytic cell lines SUP-T1, MT-4 and MT-2 and P4-CCR5 MAGI cells were obtained from the MRC AIDS reagent program or the NIH, AIDS Research and Reference Reagent Program.
as §3

For another series, the system named is HIV Rev-RRE interaction. The note with it: at 100 μM; cited from earlier work.

Entries after “also recorded” stand apart in the source; their conditions may differ. Where two headings read alike, the source gives them in different places.

T1 sequence (P61073 whole entry): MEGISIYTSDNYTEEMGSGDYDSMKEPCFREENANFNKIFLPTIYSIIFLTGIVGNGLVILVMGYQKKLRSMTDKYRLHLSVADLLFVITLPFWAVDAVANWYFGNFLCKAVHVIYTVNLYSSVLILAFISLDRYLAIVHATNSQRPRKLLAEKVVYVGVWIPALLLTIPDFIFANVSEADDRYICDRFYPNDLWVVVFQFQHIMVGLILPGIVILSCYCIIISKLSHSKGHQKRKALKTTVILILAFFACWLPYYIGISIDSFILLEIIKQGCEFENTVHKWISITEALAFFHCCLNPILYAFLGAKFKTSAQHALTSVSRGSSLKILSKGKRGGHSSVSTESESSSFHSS

As for `Cl.N=C(N)NCCC[C@H](N)C(=O)O` [Arginine HCl, reference compound], the figures for the IC50 at Tat-TAR interaction [1] and on Tat-TAR interaction [2] were 38000 µM and 4000 µM, respectively. In the series with TAR RNA, this compound came in with a CE50 of 1500 mM.
In the case of `NC[C@@H]1O[C@H](O[C@H]2[C@@H](O)[C@H](O[C@@H]3[C@@H](O)[C@H](N)C[C@H](N)[C@H]3O[C@H]3O[C@H](CN)[C@@H](O)[C@H](O)[C@H]3N)O[C@@H]2CO)[C@H](N)[C@@H](O)[C@@H]1O` [Neomycin B, reference compound], the “concentration range of inhibitory effect on Tat binding to TAR” value with Tat-TAR complex (in vitro) was 1 to 100 µM.
Regarding `CO[C@@H]1O[C@H](CC(N)=O)C(O)[C@H](O)[C@@H]1O` (stereo partly drawn) [compound 8, Methyl 6-deoxy-α-D-mannoheptopyranuronic acid amide], the melting point is 177 °C.
As to Dextran sulfate [reference compound], the “binding of HIV-1 NL4-3 to MT-4 cells” value with HIV-1 NL4-3 [3] (1 hour at 37° C., dose dependent) was “active”.
As for “Hexa/penta-argininamido-neomycin B conjugate [NeoR]”, the 50% effective concentration (EC50) in the series on HIV-1 2D is 4 µM; in series [6] (average of two independent experiments in duplicates) it was 3 µM; with HIV-1 IIIB, 3 to 4 µM. Also, the “antiviral effect in the presence of AZT” value in the series with HIV-1 2D is on record as “additive”. Besides, the TI50 in [4] is listed as 60-85. The “binding of 12G5 mAb to PHA-activated PBMC” value at CXCR4 [5] (5 μM) is recorded as “suppressed significantly more than in the presence of 5 μM R3G; also recorded: suppressed”. For the same compound, the IC50 at CXCR4 [5] (read-out: IC50-12G5 PMBC) stood at 2.4 µM. Besides, the “inhibition of virus growth” value in series [6] (MT-2 cells infected in presence of 20 μM R3G or 10 μM NeoR, then 3 days without AAC) came to 60%. Also, the “affinity for CXCR4” value on CXCR4 [7] (inhibition of 12G5 binding to SUP-T1 cells or PMBC) was “high affinity”.
SDF-1α: in the series on HIV-1 NL4-3 [3] (0.5 μg/ml), the “binding of HIV-1 to MT-4 cells” value is “did not inhibit the binding”. The EC50 in series [8] (MTT assay, read-out: EC50 HIV-1 AMD 3100res) was over 1 µM; in the series with HIV-1 NL4-3 [9], 0.04 µM. The “cross-resistance of NL4-3 AMD3100-resistant virus” value in series [8] (relative to NL4-3) is on record as over 25 fold. The compound further returned an IC50 at CXCR4 [7] of 0.013 µM.
Turning to gentamicin, the “inhibition of Rev-RRE interaction” value in the series with HIV Rev-RRE interaction is given as “do not display any inhibition”.
“native Tat: HIV trans-activator of transcription protein”: the Kd at Tat-TAR complex (comparison value, read-out: Kd of the native Tat-TAR complex) is 0.006 to 0.012 µM.

One may read the melting point as the temperature of the solid-liquid transition. A word on the EC50: it is the midpoint of the concentration-response curve. What is called Kd is a measure of binding affinity in units of concentration.

The record behind these values is patent US6642365B1, “Anti-(retro)viral conjugates of saccharides and acetamidino or guanidino compounds” (Yeda Research and Development Co. Ltd., priority 2001, dated 2003).
